Tested on: GNS166 cells

Compound: C#CCN(Cc1cc2cc(OCCCN3CCCCC3)ccc2n1S(=O)(=O)c1ccccc1)C(=O)CCCCCCC(=O)NO [DDI]
- A2M log2FoldChange: 2.665
- ABCD2 log2FoldChange: 5.236
- ABCG1 log2FoldChange: 3.412
- ABLIM2 log2FoldChange: 4.711
- ABLIM3 log2FoldChange: 3.639
- ACSL6 log2FoldChange: 2.978
- ACSM3 log2FoldChange: 2.457
- ACTBL2 log2FoldChange: 4.551
- ADAMTS2 log2FoldChange: 6.235
- ADAMTS7 log2FoldChange: 2.1929
- ADAMTS8 log2FoldChange: 3.596
- ADCYAP1R1 log2FoldChange: 3.806
- ADGRG4 log2FoldChange: 6.334
- ADRB1 log2FoldChange: 2.369
- AKR1C3 log2FoldChange: 4.683
- ALDH1A1 log2FoldChange: 3.2419
- ALPL log2FoldChange: 3.15
- AMER2 log2FoldChange: 3.985
- ANGPTL4 log2FoldChange: 2.513
- ANGPTL6 log2FoldChange: 3.595
- ANKRD1 log2FoldChange: 3.607
- ANKRD24 log2FoldChange: 3.419
- ANO5 log2FoldChange: 4.46
- ANOS1 log2FoldChange: 4.667
- APC2 log2FoldChange: 2.08
- ARHGAP4 log2FoldChange: 2.074
- ARMH1 log2FoldChange: 2.688
- ARPP21 log2FoldChange: 2.016
- ASPHD1 log2FoldChange: 2.1055
- ASXL3 log2FoldChange: 3.768
- ATCAY log2FoldChange: 4.501
- ATP6V1C2 log2FoldChange: 2.012
- AZIN2 log2FoldChange: 3.645
- B3GALT1 log2FoldChange: 2.502
- BAIAP3 log2FoldChange: 2.116
- BEST1 log2FoldChange: 2.175
- BMF log2FoldChange: 2.488
- BMP7 log2FoldChange: 2.795
- BRINP1 log2FoldChange: 6.679
- C2orf81 log2FoldChange: 2.053
- C5AR1 log2FoldChange: 2.131
- C14orf132 log2FoldChange: 5.7
- CACNA1H log2FoldChange: 4.953
- CACNA2D2 log2FoldChange: 5.172
- CADM3 log2FoldChange: 6.675
- CALHM5 log2FoldChange: 2.928
- CALY log2FoldChange: 5.625
- CAMK2N2 log2FoldChange: 2.028
- CARMIL2 log2FoldChange: 3.403
- CARMIL3 log2FoldChange: 3.869
- CCDC39 log2FoldChange: 4.487
- CCDC92B log2FoldChange: 5.8
- CCDC110 log2FoldChange: 2.494
- CCDC148 log2FoldChange: 2.41
- CCDC160 log2FoldChange: 2.467
- CCDC181 log2FoldChange: 2.436
- CCDC183 log2FoldChange: 2.45
- CCM2L log2FoldChange: 4.732
- CD22 log2FoldChange: 2.4858
- CDYL2 log2FoldChange: 2.827
- CECR2 log2FoldChange: 4.106
- CELF5 log2FoldChange: 4.62
- CFAP43 log2FoldChange: 2.577
- CFAP54 log2FoldChange: 2.381
- CFAP57 log2FoldChange: 3.908
- CFAP298-TCP10L log2FoldChange: 2.613
- CHGB log2FoldChange: 2.484
- CHRD log2FoldChange: 2.364
- CHST9 log2FoldChange: 3.903
- CKMT1A log2FoldChange: 5.211
- CLEC19A log2FoldChange: 2.635
- CLIC5 log2FoldChange: 2.4345
- COL2A1 log2FoldChange: 3.044
- COL6A3 log2FoldChange: 4.472
- CPED1 log2FoldChange: 2.118
- CPLX1 log2FoldChange: 3.672
- CPM log2FoldChange: 2.471
- CRABP1 log2FoldChange: 4.4
- CRTAC1 log2FoldChange: 4.102
- CRYAB log2FoldChange: 3.702
- CSMD2 log2FoldChange: 3.997
- CSRNP3 log2FoldChange: 2.27
- CTSH log2FoldChange: 2.081
- CYP1A1 log2FoldChange: 3.053
- CYP2S1 log2FoldChange: 2.662
- CYP4F22 log2FoldChange: 6.411
- DAPL1 log2FoldChange: 2.233
- DCAF8L1 log2FoldChange: 5.4838
- DDIT4L log2FoldChange: 2.364
- DENND6B log2FoldChange: 2.257
- DGKI log2FoldChange: 3.175
- DHH log2FoldChange: 3.784
- DLL3 log2FoldChange: 3.7947
- DLX3 log2FoldChange: 2.236
- DMBX1 log2FoldChange: 2.746
- DNAAF1 log2FoldChange: 4.023
- DNAH7 log2FoldChange: 3.23
- DNAI1 log2FoldChange: 4.453
- DNAI3 log2FoldChange: 2.636
- DNAI7 log2FoldChange: 4.138
- DOCK5 log2FoldChange: 2.9913
- DTX1 log2FoldChange: 4.306
- DUSP9 log2FoldChange: 2.25
- EAF2 log2FoldChange: 2.082
- EDA log2FoldChange: 4.8176
- EFCAB12 log2FoldChange: 2.979
- EGFL7 log2FoldChange: 2.196
- EGLN3 log2FoldChange: 2.576
- EID3 log2FoldChange: 2.42
- ELAPOR2 log2FoldChange: 4.1571
- ELOVL3 log2FoldChange: 3.984
- EPHB6 log2FoldChange: 4.725
- ERBB3 log2FoldChange: 2.384
- ERVV-1 log2FoldChange: 6.315
- FAIM2 log2FoldChange: 2.169
- FAM43B log2FoldChange: 2.485
- FAM71F1 log2FoldChange: 2.207
- FAM78A log2FoldChange: 2.232
- FAM107A log2FoldChange: 2.013
- FAM131C log2FoldChange: 2.228
- FANK1 log2FoldChange: 2.642
- FAT2 log2FoldChange: 2.483
- FBLN2 log2FoldChange: 5.485
- FBLN5 log2FoldChange: 4.419
- FBXO2 log2FoldChange: 2.58
- FGF13 log2FoldChange: 3.276
- FIBIN log2FoldChange: 2.106
- FKBP1B log2FoldChange: 2.251
- FOLR1 log2FoldChange: 2.626
- FOXO6 log2FoldChange: 2.278
- FRK log2FoldChange: 2.849
- FSTL5 log2FoldChange: 5.479
- FXYD6 log2FoldChange: 4.385
- GABRB1 log2FoldChange: 3.597
- GABRD log2FoldChange: 5.7221
- GABRQ log2FoldChange: 7.349
- GALNT6 log2FoldChange: 2.317
- GDPD1 log2FoldChange: 2.176
- GFY log2FoldChange: 3.527
- GLB1L2 log2FoldChange: 6.148
- GNG4 log2FoldChange: 2.04
- GNG8 log2FoldChange: 3.102
- GPC3 log2FoldChange: 3.37
- GPC5 log2FoldChange: 2.595
- GRB14 log2FoldChange: 2.215
- GRHL3 log2FoldChange: 2.762
- GRIA2 log2FoldChange: 4.688
- GRIA4 log2FoldChange: 3.3
- GRID2IP log2FoldChange: 3.773
- GRIN3B log2FoldChange: 5.631
- GSTO2 log2FoldChange: 2.18
- HAND1 log2FoldChange: 4.809
- HAPLN3 log2FoldChange: 2.0919
- HBA1 log2FoldChange: 5.471
- HBA2 log2FoldChange: 4.292
- HEPHL1 log2FoldChange: 2.403
- HGF log2FoldChange: 3.276
- HHIP log2FoldChange: 3.119
- HIF3A log2FoldChange: 5.349
- HLA-DMB log2FoldChange: 2.342
- HMCN2 log2FoldChange: 3.444
- HOATZ log2FoldChange: 4.467
- HOXA13 log2FoldChange: 2.2385
- HPCAL4 log2FoldChange: 5.769
- HSPA2 log2FoldChange: 3.557
- HTR6 log2FoldChange: 3.33
- ID4 log2FoldChange: 2.033
- IER3 log2FoldChange: 2.061
- IFITM10 log2FoldChange: 2.3164
- IGFBP3 log2FoldChange: 2.818
- IGFN1 log2FoldChange: 4.535
- IGLON5 log2FoldChange: 3.821
- IGSF1 log2FoldChange: 6.9503
- IGSF9 log2FoldChange: 5.356
- IGSF11 log2FoldChange: 3.128
- IL1A log2FoldChange: 2.307
- IL18R1 log2FoldChange: 2.881
- IL21R log2FoldChange: 5.107
- INSRR log2FoldChange: 3.812
- INSYN1 log2FoldChange: 2.89
- ITGAX log2FoldChange: 6.404
- ITIH5 log2FoldChange: 7.18
- JAK3 log2FoldChange: 3.281
- JAKMIP1 log2FoldChange: 6.861
- JPH3 log2FoldChange: 7.177
- JPH4 log2FoldChange: 6.374
- KCNH7 log2FoldChange: 3.228
- KCNK3 log2FoldChange: 2.911
- KCNN1 log2FoldChange: 6.119
- KCNN3 log2FoldChange: 2.959
- KCNQ2 log2FoldChange: 7.079
- KCNQ3 log2FoldChange: 6.35
- KCNU1 log2FoldChange: 3.505
- KDR log2FoldChange: 2.185
- KIAA1755 log2FoldChange: 3.46
- KIF26A log2FoldChange: 3.322
- KIRREL2 log2FoldChange: 3.351
- KISS1R log2FoldChange: 5.189
- KLRG1 log2FoldChange: 3.015
- KNDC1 log2FoldChange: 5.452
- KRT81 log2FoldChange: 2.561
- LAMA1 log2FoldChange: 4.927
- LANCL3 log2FoldChange: 2.567
- LGI3 log2FoldChange: 4.02
- LGI4 log2FoldChange: 3.612
- LHX6 log2FoldChange: 2.492
- LINGO1 log2FoldChange: 3.184
- LMX1B log2FoldChange: 4.789
- LRAT log2FoldChange: 2.695
- LRRC4B log2FoldChange: 6.224
- LRRC63 log2FoldChange: 3.034
- LTK log2FoldChange: 2.536
- LUM log2FoldChange: 2.768
- MACC1 log2FoldChange: 2.159
- MAGEC1 log2FoldChange: 3.487
- MAK log2FoldChange: 2.409
- MDFI log2FoldChange: 3.485
- MEFV log2FoldChange: 4.614
- MEGF11 log2FoldChange: 3.91
- MGAT3 log2FoldChange: 4.144
- MME log2FoldChange: 2.372
- MORN3 log2FoldChange: 2.131
- MPP7 log2FoldChange: 2.694
- MRO log2FoldChange: 3.525
- MT3 log2FoldChange: 2.775
- MYEOV log2FoldChange: 3.238
- MYO1D log2FoldChange: 2.853
- MYOZ2 log2FoldChange: 6.009
- NALF2 log2FoldChange: 4.418
- NAT16 log2FoldChange: 3.0286
- NCALD log2FoldChange: 2.788
- NCAN log2FoldChange: 5.945
- NCCRP1 log2FoldChange: 5.22
- NECTIN4 log2FoldChange: 2.229
- NFASC log2FoldChange: 2.355
- NFATC4 log2FoldChange: 2.3144
- NFIA log2FoldChange: 2.067
- NKD1 log2FoldChange: 3.284
- NKX1-2 log2FoldChange: 2.899
- NLRP1 log2FoldChange: 3.5059
- NME5 log2FoldChange: 2.6336
- NPY2R log2FoldChange: 3.759
- NSG1 log2FoldChange: 5.809
- NTNG2 log2FoldChange: 2.905
- NXPH3 log2FoldChange: 2.7857
- OLFM2 log2FoldChange: 3.458
- OLIG2 log2FoldChange: 6.361
- OTOGL log2FoldChange: 4.502
- PALM3 log2FoldChange: 2.0048

Source: article PMC11971462, “Generation and validation of a novel multitarget small molecule in glioblastoma” (Cell Death & Disease, 2025)
